Measurements reported in patent US20030190650A1 (priority 2000, published 2003).

System: primary human neutrophils
Assay: Gliotoxin block of GM-CSF inhibition of neutrophil apoptosis (MTT)
Type: cell-based
Settings: 0.1 μg/ml with 5 U/ml GM-CSF
Method: Primary human neutrophils are isolated and purified from peripheral blood of normal healthy individuals. Neutrophils are resuspended in serum containing culture medium containing 5 U/ml of GM-CSF at a concentration of 2×10^6/ml. […] After the indicated time, 10 μl of MTT (5 mg/ml) are added to the cultures and incubated for a further 4 h at 37° C. before solubilisation of the purple coloured formazan with acidic isopropanol. Optical densities are read at 570 nm using a plate reader.

Q: `CS[C@]1(CO)C(=O)N2[C@H]3C(=CC=C[C@@H]3O)C[C@@]2(SC)C(=O)N1C` [methylgliotoxin, bis-Dethio-bis (Methylthio) Gliotoxin] was tested. Which “effect on GM-CSF inhibition of neutrophil apoptosis” value did it give?
A: The value was “blocking effect is not seen”.
